How the values were obtained:
bri1-116 and cpd mutants = experiment: Flowcytometric analysis of DNA content of cotyledons and leaves; type: in vivo, Arabidopsis; conditions: 6 days of treatments
Procedure: FIG. 16: Rescue of bri1-116 and cpd mutants grown on different concentrations of ABRASIN and BL. The plants were germinated on MS+DMSO medium till day 5 and afterwards transferred on MS supplemented with the respective concentration of ABRASIN and BL for 6 more days. Flowcytometric analysis of cotyledons and leaves was performed at the last day of treatments. (A.) Rescue of bri1-116 mutants by ABRASIN. Increasing the ABRASIN concentration promotes cell division activation. (B.) Rescue of cpd mutants by ABRASIN. Increasing the ABRASIN concentration promotes cell division activation. (C.) Rescue of cpd mutants by BL. Both cell division and endoreduplication take place in the BL rescue strategy. BL: brassinolide; BIK: abrasin.
(§1) Col-0, the null BR signaling bri1-116 (Friedrichsen et al., 2000) and BR biosynthetic cpd (Szekeres et al., 1996) mutants were subjected to phenotype rescue analysis by treatments with BL and ABRASIN. As a negative control, dimethylsulfoxide (DMSO) was used. Plants were germinated in vitro for 5 days on ½ MS containing DMSO medium and from day 6th to day 11th they were transferred on medium supplemented with BL (10 nM, 100 nM, 1000 nM), ABRASIN (5 μM, 10 μM, 30 μM) or DMSO. Cotyledons and leaves were collected for flowcytometric analysis at the 11th day (i.e. 6 days of treatments). Samples for β-glucuronidase (GUS) assay were taken on day 6th (i.e. 1 day treatments), 8th (i.e. 3 days treatments), 10th (i.e. 5 days treatments). Rescue of soil-grown mutants at different growth stages was checked by watering bri1-116 and cpd mutants with either BL or 2 ml 300 μM ABRASIN per day.
Samples for flow cytometric analysis were collected and analyzed as described earlier (De Veylder et al., 2001)

[1] = test system: DR5, CYCB1;1 and CDKB1;1 promoters fused to GUS; experiment: GUS assay of promoter-reporter markers in first leaf; type: in vivo, Arabidopsis; conditions: for CDKB1;1-GUS expression: 30 μM ABRASIN or 1 μM BL, days 8 and 10
Procedure: FIG. 17: Investigation of differences in the rescue strategy of bri1-116 and cpd mutants treated with ABRASIN (30 μM) or BL (1 μM). The activation of markers for auxin response (DR5) and cell division (CYCB1; 1 and CDKB1; 1) was followed by localization of their promoters fused to β-glucuronidase (GUS) reporter gene. […] Samples for GUS assay were taken on day 6th (i.e. 1 day treatment), 8th (i.e. 3 days treatment), 10th (i.e. 5 days treatment). (A.) The effect of ABRASIN on the first leaf of bri1-116 and Col-0 plants—activity localization of DR5, CYCB1; 1 and CDKB1; 1 promoters fused to GUS reporter gene (B.) The effect of ABRASIN on the first leaf of cpd and Col-0 plants—activity localization of CYCB1; 1 and CDKB1; 1 promoters fused to GUS reporter gene. BL: brassinolide; BIK: abrasin.
as §1
GUS staining was carried out by the method described by Jefferson et al. (1987). Images of GUS stained plants were taken with binocular microscope (MZ16, Leica) and Nikon camera.

cpd, det2-1 mutants = experiment: Phenotype rescue of BR-biosynthesis mutants; type: in vivo, Arabidopsis thaliana; conditions: for phenotype rescue of cpd mutant: day 5 to day 11 on 1 μM BL or 30 μM ABRASIN; for rescue of dwarfed phenotype: light-grown, abrasin 50 μM or BL 1 μM
Procedure: (§2) FIG. 5: Effect of brassinolide (BL) and abrasin (I5) treatment on mutants. WT or mutant plants were grown under standard conditions on agar plates. After 3 days of germination, plants were transferred to agar plates containing abrasin at a concentration of 50 μM or BL at a concentration of 1 μM.
(§3) For further phenotypical analysis, all plants were grown on vertically oriented square plates (Greiner Labortechnik, Austria) with solid medium derived from standard Murashige and Skoog medium under the same conditions. For the hypocotyl-elongation assay, plants were grown in the dark at 22° C. under the same conditions.
as §1

[2] = test system: BES1 protein in 35S:BES1:GFP plants; experiment: Western blot analysis of BES1 phosphorylation state; type: in vivo, Arabidopsis thaliana
Procedure: FIG. 8: A: Western Blot analysis of the BES1 protein in 35S:BES1:GFP plants treated with BL and abrasin (indicated as I5 throughout the figure) (A); MG132 with BL or abrasin (B); a time course with abrasin (C) and a concentration gradient with abrasin (D). B: Abrasin and BL induce similar transcriptional regulation of the BR pathway.
For protein extraction, six-day-old seedlings were grown under standard conditions as described earlier on solid medium. Plants were next soaked in liquid MS-medium supplemented with the indicated compounds (concentrations and time periods as indicated in figures). Subsequently, plants were frozen in liquid nitrogen, ground and homogenized in ice-cold homogenization buffer (25 mM Tris-HCl (pH 8), 5 mM EDTA, 1 mM β-Mercapto-ethanol, 15 mM MgCl—2, 85 mM NaCl, 0.1% Tween 20, 1 protease inhibitor tablet/50 ml, Complete (Roche diagnostics, Belgium)). The homogenate was centrifuged twice (5 min, 14.000 rpm, 4° C.) in an Eppendorf Centrifuge 5417. Loading buffer was added, the samples were heated for 10 min at 95° C. and centrifuged. The samples were separated on a 12% acrylamide gel or a 4-20% gradient pre-cast gel (Bio-Rad) and blotted on nitrocellulose membranes (Hybond-C super, GE-Biosciences, UK) in 190 mM glycine and 25 mM Tris-Hcl using a mini-blotting system (Bio-Rad, USA) for 1 h. Membranes were blocked overnight at 4° C. in phosphate buffer with 0.1% Tween 20 and 5% skim milk (BD Difco, USA). For immunodetection, anti-BES1 antibodies at 1:2000 dilution and anti-GFP antibodies at 1:1000 dilution were used as primary antibody. As secondary antibody, anti-rat and anti-rabbit were used at 1:10.000 dilution. The proteins were detected by chemiluminescence (Perkin-Elmer, USA).

[3] = test system: bri1-116, bri1-301 mutants; experiment: Phenotype rescue of BR perception (receptor) mutants; type: in vivo, Arabidopsis thaliana; conditions: for phenotype rescue of bri1-116 mutant: day 5 to day 11 on 1 μM BL or 30 μM ABRASIN; for rescue of dwarfed phenotype: light-grown, abrasin 50 μM or BL 1 μM
Procedure: as §2, §3, §1

Row | SMILES | DNA content distribution of leaves (bri1-116 and cpd mutants) | CDKB1;1-GUS expression [1] | concentration sufficient to rescue the mutant phenotypes (cpd, det2-1 mutants; 6 days of treatments) [nM] | phenotype rescue of cpd mutant (cpd, det2-1 mutants) | rescue of dwarfed phenotype (cpd, det2-1 mutants) | BES1 phosphorylation state ([2]; addition of BL or MG132) | phenotype rescue of bri1-116 mutant [3] | rescue of dwarfed phenotype [3] | DNA content of cotyledons (bri1-116 and cpd mutants) | CYCB1;1 expression (cell division marker) ([1]; 30 μM ABRASIN) | DR5 activity in the leaves ([1]; 1 day of treatment) | DR5 activity / auxin levels in the leaves ([1]; longer treatment) | total amount of BES1 protein ([2]; abrasin 50 μM) | BES1 phosphorylation state ([2]; abrasin 5 to 10 μM) | time to shift towards the non-phosphorylated BES1 protein ([2]; after addition to the medium) [min] | time after treatment at which phenotypic changes were observed ([3]; bri1-116 and cpd mutants, 30 μM ABRASIN) [days] | concentration sufficient to rescue the mutant phenotypes ([3]; bri1-116 and cpd mutants, 6 days of treatments) [µM]
1 | CC(C)[C@H](C)[C@@H](O)[C@H](O)[C@@H](C)[C@H]1CC[C@H]2[C@@H]3COC(=O)[C@H]4C[C@H](O)[C@H](O)C[C@]4(C)[C@H]3CC[C@]12C [BL, brassinolide, reference compound] | did not significantly changes the DNA content distribution | induced only stomata specific expression | 10 | rescued the dwarf statute of the cpd to a wild-type | rescues the cpd and det2-1 mutants | induces more non-phosphorylated protein | bri1-116 was insensitive and therefore unaffected by BL | but not the bri1 receptor mutants |  |  |  |  |  |  |  |  | 
2 | O=C(O)CCC(=O)Nc1ccc(Br)cn1 [abrasin, 4-[(5-bromo-2-pyridinyl)amino]-4-oxobutanoic acid] | significantly increased the 2C and 4C content and completely suppressed the 16C content | activated CDKB1; 1-GUS predominately in the leaf vasculature |  | rescued the phenotypes of both bri1-116 and cpd mutants to the wild-type | all mutant lines, including the bri1 receptor mutants, showed an elongated phenotype |  | rescued the phenotypes of both bri1-116 and cpd mutants to the wild-type | all mutant lines, including the bri1 receptor mutants, showed an elongated phenotype | the values for cotyledons did not differ form the untreated controls | increased the CYCB1; 1 expression | did not significantly increases the DR5 activity in the leaves | the auxin levels in both bri1-116 and wild type leaves were increased after longer treatment | the total amount of BES1 protein is also reduced | a shift towards non-phosphorylated BES1 is observed | ≤ 30 | 1 | 10

Reference: patent US8273775B2, “Non-steroidal brassinosteroid mimetic” (priority 2006, dated 2012)
